The test system of one experiment is HIV-1IIIB. As to the kind of experiment: HIV-1 antiviral assay in CEM-SS cells. As to conditions: peptides 10 micrograms per ml; CEM-SS cells plus HIV-1IIIB; MTS readout 6 days post-infection.
Another experiment relates to HCMV strain AD169. As to the kind of experiment: HCMV plaque formation assay in MRC-5 cells. The conditions noted are these: peptides 10 micrograms per ml, 7-10 days.
Experiment [1] has as its system Primary Human endothelial cells (HUVEC). As to the kind of experiment: Endothelial cell migration assay. It is filed as cell-based. As to conditions: 10 micrograms per ml, 22 hours, combination peptide 1:peptide 2 1.10 mole:0.90 mole.
A further experiment relates to Streptococcus pneumoniae. As to the kind of experiment: Streptococcus pneumoniae assay. It is filed as cell-based. The conditions noted are these: 10 micrograms per ml; 5x10^5 CFU/mL; read visually; combination 0.95 mole peptide 1 and 1.05 mole peptide 2 and all other molar ratios from 1:100 to 100:1.
Another experiment has as its system murine spleen cells. Description: Th1/Th2 cytokine profiling assay. The conditions noted are these: 10 micrograms per ml, Ovalbumin-restimulated spleen cells, 72 hours. It is filed as cell-based, Balb/c mice.
The subject of experiment [2] is hepatitis B virus (HBV) ayw strain. Description: HBV experimental assay system (HepG2-2.2.15, TaqMan PCR of secreted HBV DNA). It is filed as cell-based. The conditions noted are these: 10 micrograms per ml, six days, HBV DNA by TaqMan PCR, combination 0.95 mole peptide 1 and 1.05 mole peptide 2. Background: In qPCR the cycle at which signal appears reflects the starting amount.

For a further experiment, the system named is HUVEC. As to the kind of experiment: Endothelial tube formation assay. As to conditions: 10 micrograms per ml, 20 hours, average tubule length, combination peptide 1:peptide 2 1.10 mole:0.90 mole. It is filed as cell-based, human. The source says: Positive control was vehicle only.
[3] abbreviates: combination 0.95 mole peptide 1 and 1.05 mole peptide 2.

No end group written: not given here.

Source text for murine spleen cells: The Balb/c mice (originated in 1923, it is a popular strain and is used in many different research disciplines. Also classified as an inbred from the production of 20 or more successive brother-sister matings, the Balb/c mouse is albino and small in size) were immunized on Days 1, 15, and 29 with Ovalbumin (Ovalbumin is the main protein found in egg white, commonly used to stimulate an immunological reaction in test animals) in PBS (5 micrograms/injection). On day 50, spleens of the mice were harvested (3 weeks after last boost with Ovalbumin). […] Thereafter, additional Ovalbumin was added to the cells at 10 micrograms/ml for in vitro restimulation of the cells. 72 hours later, cell supernatants were harvested and assayed using the Becton Dickinson Mouse Th1/Th2 Cytokine CBA Kit. This kit can be used to measure Interleukin-2 (IL-2), Interleukin-4 (IL-4), Interleukin-5 (IL-5), Interferon-γ (IFN-γ), and Tumor Necrosis Factor-a (TNF-a) protein levels in a single sample.

Turning to `Cc1cn([C@H]2C[C@H](N=[N+]=[N-])[C@@H](CO)O2)c(=O)[nH]c1=O` [AZT], the “inhibition of HIV-1 activity on tested T-cells” value in the experiment on HIV-1IIIB is “expected levels of antiviral activity”.
For `Nc1nc(O)c2ncn(COC(CO)CO)c2n1` [Ganciclovir, reference compound], in the experiment with HCMV strain AD169, the “inhibition of HCMV plaque formation as compared to the virus control experiment” value is on record as “expected levels of antiviral activity”.
With `CC(C)(C)NC(=O)[C@@H]1CN(Cc2cccnc2)CCN1C[C@@H](O)C[C@@H](Cc1ccccc1)C(=O)N[C@H]1c2ccccc2C[C@H]1O` [indinavir], in the experiment on HIV-1IIIB, the “inhibition of HIV-1 activity on tested T-cells” value is given as “expected levels of antiviral activity”.
Turning to “Cys-Tyr-Phe-Gln-Asn-Cys-Pro-Arg-Gly-NH2 (CYFQNCPRG-NH2; ends and bridges not checked) [Peptide 2]”, in experiment [1], the “inhibition of the migration of human endothelial cells” value is 5%. Moreover, the “inhibition of HCMV plaque formation as compared to the virus control experiment” value in the experiment with HCMV strain AD169 is reported as “did not inhibit”. Besides, the “inhibition of the growth of Streptococcus pneumoniae” value with Streptococcus pneumoniae was found to be 100%. In addition, the “production of IL-4 in murine spleen cells, suppressed by” value in the experiment with murine spleen cells was 59.6%. Further, in the experiment with murine spleen cells (setting [3]), the “change of the production of IL-5 in murine spleen cells” value is recorded as “did not significantly change”; the “production of IFN-γ in murine spleen cells, induced by” value is “did not significantly change”; the “production of IL-2 in murine spleen cells, induced by” value is reported as “did not significantly change”; the “production of TNF-alpha in murine spleen cells, induced by” value is on record as 24.9%. For the same compound, in experiment [2], the “inhibition of HBV replication as compared to the virus control infection” value was 26.3%. For the same compound, the “increase of the tube formation of human endothelial cells” value in the experiment with HUVEC came to 4%.
For the compound PALPEDGGSGAFPPGHFKDPKRLY [Peptide 1], the “inhibition of the migration of human endothelial cells” value in experiment [1] was 17%. In the experiment on HCMV strain AD169, the “inhibition of HCMV plaque formation as compared to the virus control experiment” value was “did not inhibit”. In addition, the “inhibition of the growth of Streptococcus pneumoniae” value in the experiment on Streptococcus pneumoniae came out at 100%. In the experiment with murine spleen cells (setting [3]), the “change of the production of IL-5 in murine spleen cells” value is recorded as “did not significantly change”; the “production of IFN-γ in murine spleen cells, induced by” value came out at 30.3%; the “production of IL-2 in murine spleen cells, induced by” value came to 77.4%; the “production of IL-4 in murine spleen cells, induced by” value is 123.9%. Also, the “production of TNF-alpha in murine spleen cells, induced by” value in the experiment with murine spleen cells (setting [3]) came out at 30.0%. Moreover, in experiment [2], the “inhibition of HBV replication as compared to the virus control infection” value is recorded as 24.3%. The “increase of the tube formation of human endothelial cells” value in the experiment on HUVEC worked out at 2%.
